{"source": "patent US9353132B2", "about": "“Boron-based 4-hydroxytamoxifen and endoxifen prodrugs as treatment for breast cancer” (XAVIER UNIVERSITY OF LOUISIANA, priority 2012, dated 2016)", "key": {"[1]": {"test_system": "estrogen-dependent cell proliferation", "conditions": "cited from earlier work"}, "[2]": {"test_system": "MCF-7 cells", "assay": "Cell survival/growth inhibition assay in ER+ MCF-7 breast cancer cells", "format": "cell-based, human", "conditions": "for inhibition at 1 µM / inhibition at 0.1 µM: MCF7", "description": "MCF-7 is a human breast adenocarcinoma cell line commonly accepted in the art as useful for in vitro breast cancer studies because it has retained several ideal characteristics particular to mammary epithelium. These characteristics include the ability to process estrogen (in the form of estradiol) via estrogen receptors in the cell cytoplasm. This makes the MCF-7 cell line an estrogen receptor (ER) positive control cell line.\nTo test if the prodrugs inhibit breast cancer cell growth and proliferation, cell survival assays were conducted."}, "[3]": {"test_system": "T47D cells", "assay": "Cell survival/growth inhibition assay in ER+ T47D breast cancer cells", "format": "cell-based", "conditions": "for inhibition at 1 µM / inhibition at 0.1 µM: T47D; for pIC50: dose-response, T47D cells", "description": "The T47D cell line is also an ER positive control cell line.\nTo test if the prodrugs can inhibit growth in another breast cancer cell line that also expresses the estrogen receptor, T47D cells were used."}, "[4]": {"assay": "Kinetic stability of prodrug (conversion to 4-OHT) in MCF-7 cell culture", "format": "in vitro ADME, human", "conditions": "human, MCF-7 cell culture; 0 to 144 hours, regression of prodrug concentration relative to 4-OHT", "experimental": "(§1) A kinetic study on the stability of the prodrugs was performed. In the study, the relative concentration of a prodrug to 4-OHT was determined at different time points that ranged from 0 hour to 144 hours (6 days)."}, "[5]": {"test_system": "MCF-7 cells", "assay": "Oxidative conversion of prodrug to 4-OHT in media after incubation with MCF-7 cells (HPLC-MS/MS)", "format": "in vitro ADME, human", "conditions": "LC-MS/MS", "experimental": "(§2) To determine if the actions of the prodrugs are by means of biotransformation into the compound 4-hydroxytamoxifen, we analyzed the concentrations of the prodrugs and 4-hydroxytamoxifen in the media containing breast cancer cells using an HPLC-MS/MS technique.\n(§3) Using HPLC coupled to a linear trap mass spectrometer, the prodrugs and their active product, 4-OHT were separated, identified, and quantified.\n(§4) The relative peak areas were measured at 30.4% for prodrug 3 and 69.6% for 4-OHT (FIG. 5 panel A)."}, "[6]": {"test_system": "T47D cells", "assay": "Oxidative conversion of prodrug to 4-OHT in media after incubation with T47D cells (HPLC-MS/MS)", "format": "in vitro ADME", "conditions": "LC-MS/MS", "experimental": "as §2, §3, §4"}, "[7]": {"test_system": "MCF-7 cell culture", "assay": "Kinetic stability of prodrug (conversion to 4-OHT) in MCF-7 cell culture", "format": "in vitro ADME, human", "conditions": "0 to 144 hours, regression of prodrug concentration relative to 4-OHT", "experimental": "as §1"}, "[8]": {"conditions": "Homo sapiens, MCF7, dose-response, MCF-7 cells"}}, "note": "pIC50: −log10 of the molar value.", "data": [{"molecule": "4-hydroxytamoxifen [Prodrug 4-OHT]", "values": [{"measurement": "potency relative to tamoxifen in inhibiting estrogen-dependent cell proliferation", "setting": "[1]", "value": "30- to 100 fold"}]}, {"molecule": "CCC(=C(c1ccc(OCCN(C)C)cc1)c1ccc(B2OC(C)(C)C(C)(C)O2)cc1)c1ccccc1", "note": "[Prodrug 1, N,N-Dimethyl-2-(4-(2-phenyl-1-(4-(4,4,5,5-tetramethyl-1,3,2-dioxaborolan-2-yl)phenyl)but-1-en-1-yl)phenoxy)ethanamine]", "values": [{"measurement": "pIC50", "setting": "[2]; [8]", "value": 6.82}, {"measurement": "inhibition at 1 µM", "setting": "[2]; Homo sapiens, 10^−6 M", "value": 63, "unit": "%"}, {"measurement": "inhibition at 0.1 µM", "setting": "[2]; Homo sapiens, 10^−7 M", "value": 52, "unit": "%"}, {"measurement": "IC50 relative to tamoxifen", "setting": "[2]; cell line not given, values match MCF-7", "value": "about 5 times lower"}, {"measurement": "pIC50", "setting": "[2]; dose-response, MCF-7 cells, listed as Boron-4-OHT Prodrug (1)", "value": 6.83}, {"measurement": "inhibition at 1 µM", "setting": "[3]; Homo sapiens, 10^−6 M", "value": 60, "unit": "%"}, {"measurement": "inhibition at 0.1 µM", "setting": "[3]; Homo sapiens, 10^−7 M", "value": 42, "unit": "%"}, {"measurement": "pIC50", "setting": "[3]; Homo sapiens", "value": 6.84}, {"measurement": "half-life", "setting": "[4]", "value": 89, "unit": "h"}]}, {"molecule": "CCC(=C(c1ccc(OCCN(C)C)cc1)c1ccc([B-](F)(F)F)cc1)c1ccccc1.[K+]", "note": "[Prodrug 2, Potassium (4-(1-(4-(2-(dimethylamino)ethoxy)phenyl)-2-phenylbut-1-en-1-yl)phenyl)trifluoro boronate]", "values": [{"measurement": "growth inhibition of MCF-7 cells", "setting": "[2]; 10^−6 M", "value": 76, "unit": "%"}, {"measurement": "growth inhibition of MCF-7 cells", "setting": "[2]; 10^−7 M", "value": 59, "unit": "%"}, {"measurement": "pIC50", "setting": "[2]; dose-response, MCF-7 cells", "value": 8.20}, {"measurement": "pIC50", "setting": "[2]; dose-response, MCF-7 cells, listed as Boron-4-OHT Prodrug (2)", "value": 8.20}, {"measurement": "growth inhibition of T47D cells", "setting": "[3]; 10^−6 M", "value": 50, "unit": "%"}, {"measurement": "growth inhibition of T47D cells", "setting": "[3]; 10^−7 M", "value": 38, "unit": "%"}, {"measurement": "pIC50", "setting": "[3]", "value": 6.59}, {"measurement": "% peak area of 4-OHT formed from prodrug", "setting": "[5]", "value": 81.6, "unit": "%"}, {"measurement": "% peak area of 4-OHT formed from prodrug (transformed into 4-OHT)", "setting": "[6]", "value": 86.3, "unit": "%"}, {"measurement": "half-life of prodrug (conversion to 4-OHT)", "setting": "[7]", "value": 84, "unit": "h"}]}, {"molecule": "CCC(=C(c1ccc(OCCN(C)C)cc1)c1ccc(B(O)O)cc1)c1ccccc1", "note": "[Prodrug 3, (4-(1-(4-(2-(Dimethylamino)ethoxy)phenyl)-2-phenylbut-1-en-1-yl)phenyl)boronic acid]", "values": [{"measurement": "pIC50", "setting": "[2]; [8]", "value": 7.38}, {"measurement": "inhibition at 1 µM", "setting": "[2]; Homo sapiens, 10^−6 M", "value": 75, "unit": "%"}, {"measurement": "inhibition at 0.1 µM", "setting": "[2]; Homo sapiens, 10^−7 M", "value": 51, "unit": "%"}, {"measurement": "inhibition at 1 µM", "setting": "[3]; Homo sapiens, 10^−6 M", "value": 54, "unit": "%"}, {"measurement": "inhibition at 0.1 µM", "setting": "[3]; Homo sapiens, 10^−7 M", "value": 44, "unit": "%"}, {"measurement": "pIC50", "setting": "[3]; Homo sapiens", "value": 6.64}, {"measurement": "relative peak area of remaining prodrug", "setting": "[5]", "value": 30.4, "unit": "%"}, {"measurement": "% peak area of remaining prodrug", "setting": "[6]", "value": 20.9, "unit": "%"}, {"measurement": "half-life", "setting": "[4]", "value": 96, "unit": "h"}]}, {"molecule": "CCC(=C(c1ccc(OCCNC)cc1)c1ccc(B(O)O)cc1)c1ccccc1", "note": "[Prodrug 11, (4-(1-(4-(2-(Methylamino)ethoxy)phenyl)-2-phenylbut-1-en-1-yl)phenyl)boronic acid]", "values": [{"measurement": "pIC50", "setting": "[2]; [8]", "value": 7.59}, {"measurement": "anti-proliferative efficacy compared to tamoxifen", "setting": "[2]; MCF-7 cells", "value": "greater anti-proliferative efficacy than tamoxifen"}, {"measurement": "inhibition at 1 µM", "setting": "[3]; Homo sapiens, 10^−6 M", "value": 53, "unit": "%"}, {"measurement": "inhibition at 0.1 µM", "setting": "[3]; Homo sapiens, 10^−7 M", "value": 40, "unit": "%"}, {"measurement": "pIC50", "setting": "[3]; Homo sapiens", "value": 6.72}]}, {"molecule": "CC/C(=C(\\c1ccccc1)c1ccc(OCCN(C)C)cc1)c1ccccc1", "note": "[Tamoxifen]", "values": [{"measurement": "inhibition at 1 µM", "setting": "[2]; Homo sapiens, 10^−6 M", "value": 52, "unit": "%"}, {"measurement": "inhibition at 0.1 µM", "setting": "[2]; Homo sapiens, 10^−7 M", "value": 18, "unit": "%"}, {"measurement": "growth inhibition of T47D cells", "setting": "[3]; 10^−6 M", "value": 48, "unit": "%"}, {"measurement": "inhibition at 1 µM", "setting": "[3]; Homo sapiens, 10^−6 M", "value": 46, "unit": "%"}, {"measurement": "inhibition at 0.1 µM", "setting": "[3]; Homo sapiens, 10^−7 M", "value": 39, "unit": "%"}]}]}
